Measured values published in ChEMBL document CHEMBL5303304, “EUbOPEN Chemogenomics Library - IncuCyte” (2023).

Tests used:
Type in all cases: toxicity, cell-based
HEK-293T = assay: Incucyte cell viability with HEK293T; details: human, 10 µM, compound concentration 10 uM
Fibroblast = assay: Incucyte cell viability with human fibroblast; details: 10 µM, compound concentration 10 uM
U2OS = assay: Incucyte cell viability with U2OS; details: human, 10 µM, compound concentration 10 uM
Also: unitless GR value; below 1 slowed growth and below 0 cell loss.

CCN(C)C(=O)c1ccc2c(c1)NC(=O)/C2=C(\NC1CCN(C)CC1)c1ccccc1
Growth Rate (HEK-293T; 6 h, replicate number 1): 0.43
Growth Rate (HEK-293T; 12 h, replicate number 1): 0.82
Growth Rate (HEK-293T; 18 h, replicate number 2): 0.82
Growth Rate (HEK-293T; 24 h, replicate number 2): 0.89
Growth Rate (Fibroblast; 0 h, replicate number 2): -0.73
Growth Rate (Fibroblast; 6 h, replicate number 2): 0.61
Growth Rate (Fibroblast; 24 h, replicate number 2): 0.93
Growth Rate (U2OS; 0 h, replicate number 1): 0.88
Growth Rate (U2OS; 0 h, replicate number 2): 0.18
Growth Rate (U2OS; 6 h, replicate number 1): 0.68
Growth Rate (U2OS; 12 h, replicate number 1): 0.93
Growth Rate (U2OS; 24 h, replicate number 1): 0.92

COc1cc(-c2nn([C@H]3CC[C@H](N4CCN(C(C)=O)CC4)CC3)c3ncnc(N)c23)ccc1NC(=O)c1cc2ccccc2n1C
Growth Rate (HEK-293T; 6 h, replicate number 1): -0.95
Growth Rate (HEK-293T; 6 h, replicate number 2): -0.96
Growth Rate (HEK-293T; 12 h, replicate number 1): -0.39
Growth Rate (HEK-293T; 12 h, replicate number 2): -0.18
Growth Rate (HEK-293T; 18 h, replicate number 1): 0.38
Growth Rate (HEK-293T; 18 h, replicate number 2): 0.59
Growth Rate (HEK-293T; 24 h, replicate number 1): 0.69
Growth Rate (HEK-293T; 24 h, replicate number 2): 0.89
Growth Rate (Fibroblast; 0 h, replicate number 1): -1
Growth Rate (Fibroblast; 6 h, replicate number 1): -0.52
Growth Rate (Fibroblast; 6 h, replicate number 2): -0.77
Growth Rate (Fibroblast; 12 h, replicate number 1): -0.69
Growth Rate (Fibroblast; 12 h, replicate number 2): 0.45
Growth Rate (Fibroblast; 18 h, replicate number 1): -0.56
Growth Rate (Fibroblast; 24 h, replicate number 1): -0.45
Growth Rate (U2OS; 0 h, replicate number 1): -0.86
Growth Rate (U2OS; 0 h, replicate number 2): 0.2
Growth Rate (U2OS; 6 h, replicate number 1): 0.32
Growth Rate (U2OS; 6 h, replicate number 2): 0.56
Growth Rate (U2OS; 12 h, replicate number 1): 0.44
Growth Rate (U2OS; 12 h, replicate number 2): 0.61
Growth Rate (U2OS; 18 h, replicate number 1): 0.44
Growth Rate (U2OS; 18 h, replicate number 2): 0.95
Growth Rate (U2OS; 24 h, replicate number 1): 0.44
Growth Rate (U2OS; 24 h, replicate number 2): 0.91

CCN(CC)CCO[C@H]1CC[C@@]2(C)C(=CC[C@@H]3[C@@H]2CC[C@]2(C)C(=O)CC[C@@H]32)C1.Cl
Growth Rate (HEK-293T; 6 h, replicate number 1): 0.35
Growth Rate (HEK-293T; 6 h, replicate number 2): 0.24
Growth Rate (HEK-293T; 12 h, replicate number 1): 0.32
Growth Rate (HEK-293T; 12 h, replicate number 2): 0.31
Growth Rate (HEK-293T; 18 h, replicate number 1): 0.45
Growth Rate (HEK-293T; 18 h, replicate number 2): 0.42
Growth Rate (HEK-293T; 24 h, replicate number 1): 0.53
Growth Rate (HEK-293T; 24 h, replicate number 2): 0.52
Growth Rate (Fibroblast; 6 h, replicate number 1): 0.34
Growth Rate (Fibroblast; 12 h, replicate number 1): -0.34
Growth Rate (Fibroblast; 12 h, replicate number 2): -0.05
Growth Rate (Fibroblast; 18 h, replicate number 1): -0.18
Growth Rate (Fibroblast; 18 h, replicate number 2): -0.06
Growth Rate (Fibroblast; 24 h, replicate number 1): -0.25
Growth Rate (Fibroblast; 24 h, replicate number 2): -0.11
Growth Rate (U2OS; 0 h, replicate number 1): 0.56
Growth Rate (U2OS; 6 h, replicate number 1): 0.77
Growth Rate (U2OS; 24 h, replicate number 1): 0.91

C[C@@H]1COCCN1c1cc(=O)n2c(n1)N(Cc1cncc(Cl)c1)[C@H](C(F)(F)F)CC2
Growth Rate (HEK-293T; 6 h, replicate number 1): -0.3
Growth Rate (HEK-293T; 6 h, replicate number 2): -0.11
Growth Rate (HEK-293T; 12 h, replicate number 1): 0.15
Growth Rate (HEK-293T; 12 h, replicate number 2): 0.44
Growth Rate (HEK-293T; 18 h, replicate number 1): 0.39
Growth Rate (HEK-293T; 18 h, replicate number 2): 0.54
Growth Rate (HEK-293T; 24 h, replicate number 1): 0.39
Growth Rate (HEK-293T; 24 h, replicate number 2): 0.45
Growth Rate (Fibroblast; 0 h, replicate number 2): -0.86
Growth Rate (Fibroblast; 6 h, replicate number 1): 0.36
Growth Rate (Fibroblast; 6 h, replicate number 2): -0.75
Growth Rate (Fibroblast; 12 h, replicate number 1): 0.72
Growth Rate (Fibroblast; 12 h, replicate number 2): 0.29
Growth Rate (Fibroblast; 18 h, replicate number 1): 0.92
Growth Rate (Fibroblast; 24 h, replicate number 1): 0.83
Growth Rate (U2OS; 0 h, replicate number 1): 0.01
Growth Rate (U2OS; 6 h, replicate number 1): 0.61
Growth Rate (U2OS; 12 h, replicate number 1): 0.92
Growth Rate (U2OS; 12 h, replicate number 2): 0.89
Growth Rate (U2OS; 18 h, replicate number 1): 0.87
Growth Rate (U2OS; 18 h, replicate number 2): 0.95
Growth Rate (U2OS; 24 h, replicate number 1): 0.73

COc1cc2nc(C)nc(N[C@H](C)c3cc(N)cc(C(F)(F)F)c3)c2cc1O[C@H]1CCOC1
Growth Rate (HEK-293T; 6 h, replicate number 1): 0.91
Growth Rate (HEK-293T; 12 h, replicate number 1): 0.88
Growth Rate (Fibroblast; 0 h, replicate number 1): -1
Growth Rate (Fibroblast; 6 h, replicate number 1): 0.72
Growth Rate (Fibroblast; 6 h, replicate number 2): -0.84
Growth Rate (Fibroblast; 12 h, replicate number 2): 0.03
Growth Rate (Fibroblast; 18 h, replicate number 2): 0.65
Growth Rate (Fibroblast; 24 h, replicate number 2): 0.88
Growth Rate (U2OS; 0 h, replicate number 1): 0.75
Growth Rate (U2OS; 6 h, replicate number 1): 0.51
Growth Rate (U2OS; 6 h, replicate number 2): 0.96
Growth Rate (U2OS; 18 h, replicate number 1): 0.93
Growth Rate (U2OS; 24 h, replicate number 1): 0.83

CNC(=O)COc1cc2cc(Nc3nc(N4CCC(C(=O)N(C)C)CC4)ncc3Cl)cc(OC)c2n(C)c1=O
Growth Rate (HEK-293T; 6 h, replicate number 1): 0.46
Growth Rate (HEK-293T; 6 h, replicate number 2): 0.13
Growth Rate (HEK-293T; 12 h, replicate number 1): 0.74
Growth Rate (HEK-293T; 12 h, replicate number 2): 0.41
Growth Rate (HEK-293T; 18 h, replicate number 1): 0.57
Growth Rate (HEK-293T; 18 h, replicate number 2): 0.58
Growth Rate (HEK-293T; 24 h, replicate number 1): 0.67
Growth Rate (HEK-293T; 24 h, replicate number 2): 0.66
Growth Rate (Fibroblast; 0 h, replicate number 2): 0
Growth Rate (Fibroblast; 6 h, replicate number 2): 0.46
Growth Rate (Fibroblast; 24 h, replicate number 2): 0.87
Growth Rate (U2OS; 0 h, replicate number 2): 0.59
Growth Rate (U2OS; 6 h, replicate number 1): 0.94
Growth Rate (U2OS; 12 h, replicate number 2): 0.77
Growth Rate (U2OS; 18 h, replicate number 2): 0.87
Growth Rate (U2OS; 24 h, replicate number 1): 0.92
Growth Rate (U2OS; 24 h, replicate number 2): 0.91

CSc1ccc(C[C@@H](C)C(=O)O)cc1Nc1nc(N2CC[C@H](N(C)C)C2)cc(C(F)F)c1C#N.O=C(O)C(F)(F)F
Growth Rate (HEK-293T; 6 h, replicate number 1): 0.25
Growth Rate (HEK-293T; 12 h, replicate number 1): 0.39
Growth Rate (HEK-293T; 12 h, replicate number 2): 0.58
Growth Rate (HEK-293T; 18 h, replicate number 1): 0.43
Growth Rate (HEK-293T; 18 h, replicate number 2): 0.51
Growth Rate (HEK-293T; 24 h, replicate number 1): 0.48
Growth Rate (HEK-293T; 24 h, replicate number 2): 0.58
Growth Rate (Fibroblast; 0 h, replicate number 1): -1
Growth Rate (Fibroblast; 6 h, replicate number 1): -0.12
Growth Rate (Fibroblast; 12 h, replicate number 1): 0.16
Growth Rate (Fibroblast; 12 h, replicate number 2): 0.34
Growth Rate (Fibroblast; 18 h, replicate number 1): 0.21
Growth Rate (Fibroblast; 18 h, replicate number 2): 0.8
Growth Rate (Fibroblast; 24 h, replicate number 1): 0.3
Growth Rate (Fibroblast; 24 h, replicate number 2): 0.79
Growth Rate (U2OS; 6 h, replicate number 1): 0.8
